Where a name gives a salt, the structure may show the parent alone.
Target: T1, human mGluR7 (Homo sapiens, UniProt Q14831)
T1 construct: expressed in transfected cells
Test: mGluR7 assay: CRE-directed luciferase reporter gene assay, reduction of forskolin stimulated cAMP production
Assay type: cell-based
Conditions: stable CHO cell line expressing the CRE-luc reporter and human mGluR7 genes; decrease of forskolin stimulated luminescence; 10-point concentration-response, duplicate wells
Outline: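 Stable CHO cell line co-expressing human mGluR7 and a CRE-luciferase reporter; compounds preincubated 15 min at 37 °C, then forskolin added and incubated 5 h at 37 °C. 10-point half-log concentration-response in duplicate, normalised to forskolin-alone (max) and forskolin plus tool mGluR7 agonist (min) controls.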

T1 sequence (Q14831 35-915): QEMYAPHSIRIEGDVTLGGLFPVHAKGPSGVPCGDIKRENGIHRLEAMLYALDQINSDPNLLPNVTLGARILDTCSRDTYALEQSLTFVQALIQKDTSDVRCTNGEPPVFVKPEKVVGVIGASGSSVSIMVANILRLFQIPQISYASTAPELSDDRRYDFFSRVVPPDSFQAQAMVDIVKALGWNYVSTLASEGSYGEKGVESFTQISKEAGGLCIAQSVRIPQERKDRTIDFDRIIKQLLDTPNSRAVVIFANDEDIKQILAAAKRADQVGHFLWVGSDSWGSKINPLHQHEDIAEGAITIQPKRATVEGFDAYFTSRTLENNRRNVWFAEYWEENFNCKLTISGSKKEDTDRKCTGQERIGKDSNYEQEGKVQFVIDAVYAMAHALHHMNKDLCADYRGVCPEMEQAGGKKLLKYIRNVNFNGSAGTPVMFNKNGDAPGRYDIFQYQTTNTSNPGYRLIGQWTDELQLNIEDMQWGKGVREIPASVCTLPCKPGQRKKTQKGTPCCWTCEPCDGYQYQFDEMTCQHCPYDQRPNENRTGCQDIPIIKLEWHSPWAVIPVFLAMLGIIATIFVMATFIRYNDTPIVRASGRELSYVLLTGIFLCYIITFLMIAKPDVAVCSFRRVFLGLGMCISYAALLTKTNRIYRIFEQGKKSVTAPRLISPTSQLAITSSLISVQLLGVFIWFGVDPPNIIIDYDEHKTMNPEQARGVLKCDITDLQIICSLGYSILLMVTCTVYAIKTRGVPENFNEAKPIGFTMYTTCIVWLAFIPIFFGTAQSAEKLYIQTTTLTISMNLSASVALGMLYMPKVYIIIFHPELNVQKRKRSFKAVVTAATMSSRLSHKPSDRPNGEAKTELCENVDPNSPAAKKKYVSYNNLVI

Row | Compound | EC50
1 | C[C@H](C(=O)N[C@H]1Cc2ccccc2[C@@H]1NCC1CC1)c1ccc(F)cc1 [Example 47, (2S)—N-[(1S,2S)-1-[(cyclopropylmethyl)amino]-2,3-dihydro-1H-inden-2-yl]-2-(4-fluorophenyl)propanamide] | 21 nM
2 | CC[C@H](C(=O)N[C@H]1Cc2ccccc2[C@@H]1N)c1ccc(F)cc1 [Example 52, (2S)—N-[(1S,2S)-1-amino-2,3-dihydro-1H-inden-2-yl]-2-(4-fluorophenyl)butanamide] | 53 nM
3 | CC[C@H](C(=O)N[C@@H]1Cc2ccccc2[C@H]1N)c1ccc(F)cc1 [Example 53, (2S)—N-[(1R,2R)-1-amino-2,3-dihydro-1H-inden-2-yl]-2-(4-fluorophenyl)butanamide] | 126 nM
4 | COc1ccc(C(C)C(=O)N[C@H]2Cc3ccccc3[C@@H]2N)cc1 (stereo partly drawn) [Example 57, N-[(1S,2S)-1-amino-2,3-dihydro-1H-inden-2-yl]-2-(4-methoxyphenyl)propanamide hydrochloride] | 2210 nM
5 | CC(C(=O)N[C@H]1Cc2ccccc2[C@@H]1N)c1ccc(C(F)(F)F)cc1 (stereo partly drawn) [Example 58, N-[(1S,2S)-1-amino-2,3-dihydro-1H-inden-2-yl]-2-[4-(trifluoromethyl)phenyl]propanamide hydrochloride] | 1780 nM
6 | C[C@H](C(=O)N[C@H]1Cc2ccccc2[C@@H]1NCC(F)(F)F)c1ccc(F)cc1F [Example 59, (2S)-2-(2,4-difluorophenyl)-N-[(1S,2S)-1-[(2,2,2-trifluoroethyl)amino]-2,3-dihydro-1H-inden-2-yl]propanamide] | 7 nM
7 | CN[C@H]1c2ccccc2C[C@@H]1NC(=O)[C@@H](C)c1ccc(F)cc1 [Example 64, (2S)-2-(4-fluorophenyl)-N-[(1S,2S)-1-(methylamino)-2,3-dihydro-1H-inden-2-yl]propanamide] | 45 nM
8 | C[C@H](C(=O)N[C@H]1Cc2ccccc2[C@@H]1N(C)C)c1ccc(F)cc1 [Example 74, (2S)—N-(trans)-[1-(dimethylamino)-2,3-dihydro-1H-inden-2-yl]-2-(4-fluorophenyl)propanamide] | 94 nM
9 | CC(F)(C(=O)N[C@H]1Cc2ccccc2[C@@H]1N)c1ccc(F)cc1 (stereo partly drawn) [Example 75, N-[(1S,2S)-1-amino-2,3-dihydro-1H-inden-2-yl]-2-fluoro-2-(4-fluorophenyl)propanamide] | 320 nM
10 | N[C@H]1c2ccccc2C[C@@H]1NC(=O)C1(c2ccccc2Cl)CC1 [Example 79, N-[(1S,2S)-1-amino-2,3-dihydro-1H-inden-2-yl]-1-(2-chlorophenyl)cyclopropane-1-carboxamide] | 440 nM
11 | CC(=O)N[C@H]1c2ccccc2C[C@@H]1NC(=O)[C@@H](C)c1ccc(F)cc1F [Example 80, (2S)-2-(2,4-difluorophenyl)-N-[(1S,2S)-1-acetamido-2,3-dihydro-1H-inden-2-yl]propanamide] | 814 nM
12 | COC1c2ccccc2C[C@@H]1NC(=O)[C@@H](NS(=O)(=O)c1c(C)noc1C)c1ccc(F)cc1 (stereo partly drawn) [Example 83, (2S)-2-(3,5-dimethyl-1,2-isoxazole-4-sulfonamido)-2-(4-fluorophenyl)-N-((trans)-1-methoxy-2,3-dihydro-1H-inden-2-yl)acetamide] | 26 nM
13 | N[C@H]1c2ccccc2C[C@@H]1NC(=O)C(c1ccc(F)cc1)C1CC1 (stereo partly drawn) [Example 86, N-[(1S,2S)-1-amino-2,3-dihydro-1H-inden-2-yl]-2-cyclopropyl-2-(4-fluorophenyl)acetamide] | 721 nM
14 | CC(C)(C)OC(=O)N[C@H]1c2ccccc2C[C@@H]1NC(=O)C(C)(C)c1ccc(F)cc1 [Example 87, tert-butyl N-[(1S,2S)-2-[2-(4-fluorophenyl)-2-methylpropanamido]-2,3-dihydro-1H-inden-1-yl]carbamate] | 582 nM
15 | CC(C)(C)OC(=O)N[C@H]1c2ccccc2C[C@@H]1NC(=O)C1(c2ccccc2)COC1 [Example 88, tert-butyl N-[(1S,2S)-2-(3-phenyloxetane-3-amido)-2,3-dihydro-1H-inden-1-yl]carbamate] | 53 nM
16 | C[C@H](C(=O)N[C@H]1Cc2ccccc2[C@@H]1NS(C)(=O)=O)c1ccc(F)cc1F [Example 89, (2S)-2-(2,4-difluorophenyl)-N-[(1S,2S)-1-methanesulfonamido-2,3-dihydro-1H-inden-2-yl]propanamide] | 1610 nM
17 | C[C@H](C(=O)N[C@H]1Cc2ccccc2[C@@H]1NCC1CCC1)c1ccc(F)cc1F [Example 90, (2S)—N-[(1S,2S)-1-[(cyclobutylmethyl)amino]-2,3-dihydro-1H-inden-2-yl]-2-(2,4-difluorophenyl)propanamide] | 10 nM
18 | C[C@H](C(=O)N[C@H]1Cc2ccccc2[C@@H]1NC1CCC1)c1ccc(F)cc1F [Example 91, (2S)—N-[(1S,2S)-1-(cyclobutylamino)-2,3-dihydro-1H-inden-2-yl]-2-(2,4-difluorophenyl)propanamide] | 38 nM

Row | Compound | EC50
19 | C[C@H](C(=O)N[C@H]1Cc2ccccc2[C@@H]1NCc1ncccc1F)c1ccc(F)cc1F [Example 92, (2S)-2-(2,4-difluorophenyl)-N-[(1S,2S)-1-{[(3-fluoropyridin-2-yl)methyl]amino}-2,3-dihydro-1H-inden-2-yl]propanamide] | 7 nM
20 | CC(C)(C)OC(=O)N[C@H]1c2ccccc2C[C@@H]1NC(=O)C1(c2ccc(F)cc2)CCOCC1 [Example 94, tert-butyl N-[(1S,2S)-2-[4-(4-fluorophenyl)oxane-4-amido]-2,3-dihydro-1H-inden-1-yl]carbamate] | 46 nM
21 | CN[C@@H]1c2ccccc2C[C@H]1NC(=O)[C@@H](C)c1ccc(F)cc1 [Example 95, (2S)-2-(4-fluorophenyl)-N-[(1R,2R)-1-(methylamino)-2,3-dihydro-1H-inden-2-yl]propanamide] | 9 nM
22 | COC1c2ccccc2C[C@@H]1NC(=O)[C@@H](NC(=O)C1CCOCC1)c1ccc(F)cc1 (stereo partly drawn) [Example 98, (2S)-2-(4-fluorophenyl)-N-(trans)-(1-methoxy-2,3-dihydro-1H-inden-2-yl)-2-[(oxan-4-yl)formamido]acetamide] | 4 nM
23 | CC(C)(C(=O)N[C@H]1Cc2ccccc2[C@@H]1N)c1ccc(F)cc1 [Example 99, N-[(1S,2S)-1-amino-2,3-dihydro-1H-inden-2-yl]-2-(4-fluorophenyl)-2-methylpropanamide] | 2190 nM
24 | CC(C)(C)OC(=O)N[C@H]1c2ccccc2C[C@@H]1NC(=O)C(c1ccc(F)cc1F)N1CCC1 (stereo partly drawn) [Example 100, tert-butyl N-[(1S,2S)-2-[2-(azetidin-1-yl)-2-(2,4-difluorophenyl)acetamido]-2,3-dihydro-1H-inden-1-yl]carbamate] | 27 nM
25 | N[C@H]1c2ccccc2C[C@@H]1NC(=O)C(c1ccc(F)cc1F)N1CC(F)(F)C1 (stereo partly drawn) [Example 103, N-[(1S,2S)-1-amino-2,3-dihydro-1H-inden-2-yl]-2-(3,3-difluoroazetidin-1-yl)-2-(2,4-difluorophenyl)acetamide formate] | 218 nM
26 | COC1CN(C(C(=O)N[C@H]2Cc3ccccc3[C@@H]2NC(=O)OC(C)(C)C)c2ccc(F)cc2F)C1 (stereo partly drawn) [Example 104, tert-butyl N-[(1S,2S)-2-[2-(2,4-difluorophenyl)-2-(3-methoxyazetidin-1-yl)acetamido]-2,3-dihydro-1H-inden-1-yl]carbamate] | 12 nM
27 | N[C@H]1c2ccccc2C[C@@H]1NC(=O)C(c1ccc(F)cc1F)N1CC(F)C1 (stereo partly drawn) [Example 105, N-[(1S,2S)-1-amino-2,3-dihydro-1H-inden-2-yl]-2-(2,4-difluorophenyl)-2-(3-fluoroazetidin-1-yl)acetamide] | 146 nM
28 | N[C@H]1c2ccccc2C[C@@H]1NC(=O)C(c1ccc(F)cc1F)N1CCC1 (stereo partly drawn) [Example 108, N-[(1S,2S)-1-amino-2,3-dihydro-1H-inden-2-yl]-2-(azetidin-1-yl)-2-(2,4-difluorophenyl)acetamide] | 190 nM
29 | COC1CN(C(C(=O)N[C@H]2Cc3ccccc3[C@@H]2N)c2ccc(F)cc2F)C1 (stereo partly drawn) [Example 111, N-[(1S,2S)-1-amino-2,3-dihydro-1H-inden-2-yl]-2-(2,4-difluorophenyl)-2-(3-methoxyazetidin-1-yl)acetamide] | 135 nM
30 | C[C@H](C(=O)N[C@@H]1Cc2ccccc2[C@H]1N1CC(F)C1)c1ccc(F)cc1 [Example 112, (2S)—N-[(1R,2R)-1-(3-fluoroazetidin-1-yl)-2,3-dihydro-1H-inden-2-yl]-2-(4-fluorophenyl)propanamide] | 11 nM
31 | C[C@H](C(=O)N[C@@H]1Cc2ccccc2[C@H]1S(C)(=O)=O)c1ccc(F)cc1 [Example 113, (2S)-2-(4-fluorophenyl)-N-[(1R,2R)-1-methanesulfonyl-2,3-dihydro-1H-inden-2-yl]propanamide] | 38 nM
32 | C[C@H](C(=O)N[C@H]1Cc2ccccc2[C@@H]1N(Cc1ncco1)Cc1ncco1)c1ccc(F)cc1F [Example 114, (2S)—N-[(1S,2S)-1-{bis[(1,3-oxazol-2-yl)methyl]amino}-2,3-dihydro-1H-inden-2-yl]-2-(2,4-difluorophenyl)propanamide] | 101 nM
33 | N[C@H]1c2ccccc2C[C@@H]1NC(=O)C(c1ccc(F)cc1F)N1CC(OC(F)F)C1 (stereo partly drawn) [Example 119, N-[(1S,2S)-1-amino-2,3-dihydro-1H-inden-2-yl]-2-[3-(difluoromethoxy)azetidin-1-yl]-2-(2,4-difluorophenyl)acetamide] | 63 nM
34 | N[C@H]1c2ccccc2C[C@@H]1NC(=O)C1(c2ccccc2)CCNC1 (stereo partly drawn) [Example 120, N-[(1S,2S)-1-amino-2,3-dihydro-1H-inden-2-yl]-3-phenylpyrrolidine-3-carboxamide] | 3320 nM
35 | CC(C)(C)OC(=O)N[C@H]1c2ccccc2C[C@@H]1NC(=O)C1(c2ccccc2)CNC(=O)C1 (stereo partly drawn) [Example 121, tert-butyl N-[(1S,2S)-2-(5-oxo-3-phenylpyrrolidine-3-amido)-2,3-dihydro-1H-1-inden-1-yl]carbamate] | 42 nM
36 | N[C@H]1c2ccccc2C[C@@H]1NC(=O)C1(c2ccccc2)CNC(=O)C1 (stereo partly drawn) [Example 122, N-[(1S,2S)-1-amino-2,3-dihydro-1H-inden-2-yl]-5-oxo-3-phenylpyrrolidine-3-carboxamide] | 485 nM
